Source: publication PMC5095062, “The novel choline kinase inhibitor ICL-CCIC-0019 reprograms cellular metabolism and inhibits cancer cell growth” (Oncotarget, 2016)
Where two headings read alike, the source gives them in different places.

How the values were obtained:
Aurora A = Aurora A (Homo sapiens, UniProt O14965); test: Kinase selectivity screen; assay type: biochemical
Method: (§1) The substantially less demanding synthesis of ICL-CCIC-0019 compared with MN58B bears additional advantages. […] This consequently diminished intracellular PCho concentration, and importantly, the incorporation of [^3H]-choline into lipids (Figure 1D). […] To assess kinase specificity, ICL-CCIC-0019 was tested against a panel of 131 human kinases (Figure 1E and Supplementary Table S1). […] Inhibition greater than 20% was attained for insulin-like growth factor 1 (IGF-1R, 35 ± 7% inhibition), mitogen-activated protein kinase-activated protein kinase 3 (MAPKAP-K3, 33 ± 6%), extracellular signal regulated kinase 8 (ERK8, 31 ± 4%), ribosomal S6 kinase 1 (RSK1, 22 ± 6%), and v-erb-a erythroblastic leukemia viral oncogene homolog 4 (HER4, 21 ± 7%).

SIK2 = SIK2 (Homo sapiens, UniProt Q9H0K1); test: Kinase selectivity screen; assay type: biochemical; conditions: SIK2, 10 μM
Sequence of SIK2 (Q9H0K1 whole entry): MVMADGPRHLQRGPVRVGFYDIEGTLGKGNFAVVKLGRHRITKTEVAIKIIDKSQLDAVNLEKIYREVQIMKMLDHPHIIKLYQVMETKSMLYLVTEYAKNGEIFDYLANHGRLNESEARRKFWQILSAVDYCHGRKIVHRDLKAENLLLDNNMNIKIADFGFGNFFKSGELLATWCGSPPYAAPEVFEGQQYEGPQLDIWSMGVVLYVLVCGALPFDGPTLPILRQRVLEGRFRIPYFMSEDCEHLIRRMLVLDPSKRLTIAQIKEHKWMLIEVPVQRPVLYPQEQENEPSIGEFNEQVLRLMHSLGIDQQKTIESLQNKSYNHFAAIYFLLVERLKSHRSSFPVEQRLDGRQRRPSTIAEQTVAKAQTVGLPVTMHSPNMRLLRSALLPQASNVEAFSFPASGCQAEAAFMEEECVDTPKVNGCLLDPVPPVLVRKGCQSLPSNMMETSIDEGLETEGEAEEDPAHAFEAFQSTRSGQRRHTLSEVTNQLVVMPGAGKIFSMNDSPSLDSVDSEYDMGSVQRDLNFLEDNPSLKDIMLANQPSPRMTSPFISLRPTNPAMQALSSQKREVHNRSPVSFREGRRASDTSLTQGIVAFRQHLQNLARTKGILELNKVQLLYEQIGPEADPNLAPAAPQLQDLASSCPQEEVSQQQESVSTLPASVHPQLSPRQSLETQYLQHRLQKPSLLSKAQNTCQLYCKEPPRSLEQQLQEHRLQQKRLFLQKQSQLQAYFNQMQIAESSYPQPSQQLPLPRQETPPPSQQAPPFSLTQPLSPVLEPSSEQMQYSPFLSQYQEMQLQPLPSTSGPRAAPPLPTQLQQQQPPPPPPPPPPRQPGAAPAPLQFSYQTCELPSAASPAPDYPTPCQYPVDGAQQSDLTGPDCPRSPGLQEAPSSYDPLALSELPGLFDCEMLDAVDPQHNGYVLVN
Method: as §1

Aurora B = Aurora B (Homo sapiens, UniProt Q96GD4); test: Kinase selectivity screen; assay type: biochemical
Method: as §1

MAPKAP-K3 = MAPKAP-K3 (Homo sapiens, UniProt Q16644); test: Kinase selectivity screen; assay type: biochemical; conditions: MAPKAP-K3, 10 μM
Sequence of MAPKAP-K3 (Q16644 whole entry): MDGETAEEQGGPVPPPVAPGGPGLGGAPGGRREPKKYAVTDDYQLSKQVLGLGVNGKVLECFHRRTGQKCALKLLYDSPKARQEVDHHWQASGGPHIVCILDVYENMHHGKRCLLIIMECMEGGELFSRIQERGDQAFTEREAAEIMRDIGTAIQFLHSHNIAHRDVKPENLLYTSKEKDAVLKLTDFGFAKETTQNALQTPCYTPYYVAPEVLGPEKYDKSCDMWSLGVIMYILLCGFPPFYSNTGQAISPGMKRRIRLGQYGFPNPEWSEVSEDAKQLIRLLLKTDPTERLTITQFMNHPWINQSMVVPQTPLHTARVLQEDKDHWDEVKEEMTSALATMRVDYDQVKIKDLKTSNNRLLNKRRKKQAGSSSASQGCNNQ
Method: as §1

PAK6 = PAK6 (Homo sapiens, UniProt Q9NQU5); test: Kinase selectivity screen; assay type: biochemical; conditions: PAK6, 10 μM
Sequence of PAK6 (Q9NQU5 whole entry): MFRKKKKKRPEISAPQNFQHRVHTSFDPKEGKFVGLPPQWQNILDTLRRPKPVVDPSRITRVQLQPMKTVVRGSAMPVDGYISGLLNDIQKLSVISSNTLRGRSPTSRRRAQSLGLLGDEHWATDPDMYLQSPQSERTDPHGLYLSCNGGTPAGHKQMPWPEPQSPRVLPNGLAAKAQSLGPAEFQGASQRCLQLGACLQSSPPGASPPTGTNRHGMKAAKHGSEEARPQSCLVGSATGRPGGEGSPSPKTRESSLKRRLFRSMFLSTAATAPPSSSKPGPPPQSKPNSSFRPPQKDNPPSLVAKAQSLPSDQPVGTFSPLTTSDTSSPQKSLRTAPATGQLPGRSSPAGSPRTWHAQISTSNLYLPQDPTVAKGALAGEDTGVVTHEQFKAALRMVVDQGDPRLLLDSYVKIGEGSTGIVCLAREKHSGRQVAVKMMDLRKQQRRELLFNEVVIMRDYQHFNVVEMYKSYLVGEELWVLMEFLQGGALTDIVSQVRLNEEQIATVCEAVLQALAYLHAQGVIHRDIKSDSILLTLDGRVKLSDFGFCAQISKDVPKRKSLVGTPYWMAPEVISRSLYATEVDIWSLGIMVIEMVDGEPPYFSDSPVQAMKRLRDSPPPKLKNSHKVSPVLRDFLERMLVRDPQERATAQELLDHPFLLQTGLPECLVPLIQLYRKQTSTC
Method: as §1

CK1γ2 = CK1γ2 (Homo sapiens, UniProt P78368); test: Kinase selectivity screen; assay type: biochemical; conditions: CK1γ2, 10 μM
Method: as §1

HER4 = HER4 (Homo sapiens, UniProt Q15303); test: Kinase selectivity screen; assay type: biochemical; conditions: HER4, 10 μM
Sequence of HER4 (Q15303 26-1308): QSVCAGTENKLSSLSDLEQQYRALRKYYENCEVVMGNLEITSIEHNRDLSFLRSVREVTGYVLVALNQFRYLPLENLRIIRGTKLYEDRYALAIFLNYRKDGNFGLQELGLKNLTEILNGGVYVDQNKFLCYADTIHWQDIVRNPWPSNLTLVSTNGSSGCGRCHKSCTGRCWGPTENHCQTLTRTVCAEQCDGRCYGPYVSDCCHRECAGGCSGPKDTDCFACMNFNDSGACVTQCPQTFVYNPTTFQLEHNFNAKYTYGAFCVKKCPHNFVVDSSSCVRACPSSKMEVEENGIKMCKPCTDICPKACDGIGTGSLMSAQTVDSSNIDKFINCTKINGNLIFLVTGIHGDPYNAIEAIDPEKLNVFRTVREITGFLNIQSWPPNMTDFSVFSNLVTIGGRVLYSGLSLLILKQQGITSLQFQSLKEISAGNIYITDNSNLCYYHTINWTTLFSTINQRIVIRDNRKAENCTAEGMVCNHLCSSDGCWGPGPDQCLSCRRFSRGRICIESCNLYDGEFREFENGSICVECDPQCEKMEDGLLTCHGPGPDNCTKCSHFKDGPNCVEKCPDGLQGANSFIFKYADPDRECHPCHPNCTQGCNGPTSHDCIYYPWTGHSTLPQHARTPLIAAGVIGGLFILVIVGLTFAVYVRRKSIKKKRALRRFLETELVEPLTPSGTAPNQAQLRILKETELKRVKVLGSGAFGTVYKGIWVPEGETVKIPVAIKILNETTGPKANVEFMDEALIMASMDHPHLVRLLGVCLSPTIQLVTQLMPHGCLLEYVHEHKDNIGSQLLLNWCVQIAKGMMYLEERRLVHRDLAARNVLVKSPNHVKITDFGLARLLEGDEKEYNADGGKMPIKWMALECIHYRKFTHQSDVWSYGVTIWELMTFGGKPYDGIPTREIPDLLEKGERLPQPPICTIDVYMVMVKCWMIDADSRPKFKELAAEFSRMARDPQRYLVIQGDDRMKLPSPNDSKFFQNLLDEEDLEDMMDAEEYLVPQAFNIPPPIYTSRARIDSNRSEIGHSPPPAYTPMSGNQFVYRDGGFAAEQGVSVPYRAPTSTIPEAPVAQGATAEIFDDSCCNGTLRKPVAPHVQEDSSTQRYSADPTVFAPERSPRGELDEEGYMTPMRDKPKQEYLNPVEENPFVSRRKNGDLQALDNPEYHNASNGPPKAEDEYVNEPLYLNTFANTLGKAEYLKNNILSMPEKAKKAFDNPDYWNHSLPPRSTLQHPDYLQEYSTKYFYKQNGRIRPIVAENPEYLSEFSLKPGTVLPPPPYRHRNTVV
Method: as §1

HIPK2 = HIPK2 (Homo sapiens, UniProt Q9H2X6); test: Kinase selectivity screen; assay type: biochemical; conditions: HIPK2, 10 μM
Sequence of HIPK2 (Q9H2X6 whole entry): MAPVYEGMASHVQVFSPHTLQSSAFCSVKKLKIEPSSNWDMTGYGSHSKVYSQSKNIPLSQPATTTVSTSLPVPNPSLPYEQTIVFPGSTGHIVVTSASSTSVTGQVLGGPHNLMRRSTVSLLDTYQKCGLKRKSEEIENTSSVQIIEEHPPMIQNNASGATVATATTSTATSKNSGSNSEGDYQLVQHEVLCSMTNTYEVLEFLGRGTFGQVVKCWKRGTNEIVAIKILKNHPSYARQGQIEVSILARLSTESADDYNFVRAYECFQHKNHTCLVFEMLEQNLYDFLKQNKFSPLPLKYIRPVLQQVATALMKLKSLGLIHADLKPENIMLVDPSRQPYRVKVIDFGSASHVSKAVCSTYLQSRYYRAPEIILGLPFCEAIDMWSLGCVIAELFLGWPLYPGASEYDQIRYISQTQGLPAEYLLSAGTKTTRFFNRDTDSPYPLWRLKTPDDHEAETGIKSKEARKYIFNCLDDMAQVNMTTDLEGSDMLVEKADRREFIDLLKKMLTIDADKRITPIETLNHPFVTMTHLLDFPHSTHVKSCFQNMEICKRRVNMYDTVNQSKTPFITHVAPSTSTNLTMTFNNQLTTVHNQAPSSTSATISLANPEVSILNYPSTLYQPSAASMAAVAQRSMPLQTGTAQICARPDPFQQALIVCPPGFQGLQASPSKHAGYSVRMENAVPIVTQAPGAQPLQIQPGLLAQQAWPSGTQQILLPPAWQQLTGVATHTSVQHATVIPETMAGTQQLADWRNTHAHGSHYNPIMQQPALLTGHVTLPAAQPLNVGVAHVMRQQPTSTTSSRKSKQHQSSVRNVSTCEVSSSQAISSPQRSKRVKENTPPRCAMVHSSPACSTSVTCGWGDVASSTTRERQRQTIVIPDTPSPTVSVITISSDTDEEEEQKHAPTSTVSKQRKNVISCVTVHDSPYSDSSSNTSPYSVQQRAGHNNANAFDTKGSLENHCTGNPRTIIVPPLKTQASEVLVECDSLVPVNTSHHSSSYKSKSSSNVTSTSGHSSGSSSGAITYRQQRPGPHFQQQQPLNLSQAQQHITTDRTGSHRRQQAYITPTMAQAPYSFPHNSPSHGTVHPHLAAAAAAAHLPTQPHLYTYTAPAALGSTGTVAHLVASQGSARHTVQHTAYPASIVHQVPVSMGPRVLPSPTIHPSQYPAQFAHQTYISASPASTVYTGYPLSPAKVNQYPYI
Method: as §1

PKA = PKA (Homo sapiens, UniProt P17612); test: Kinase selectivity screen; assay type: biochemical
Method: as §1

PKCγ = PKCγ (Homo sapiens, UniProt P05129); test: Kinase selectivity screen; assay type: biochemical
Method: as §1

MEKK1 = MEKK1 (Homo sapiens, UniProt Q13233); test: Kinase selectivity screen; assay type: biochemical; conditions: MEKK1, 10 μM
Method: as §1

PAK5 = PAK5 (Homo sapiens, UniProt Q9P286); test: Kinase selectivity screen; assay type: biochemical; conditions: PAK5, 10 μM
Method: as §1

CK1δ = CK1δ (Homo sapiens, UniProt P48730); test: Kinase selectivity screen; assay type: biochemical
Method: as §1

IRAK4 = IRAK4 (Homo sapiens, UniProt Q9NWZ3); test: Kinase selectivity screen; assay type: biochemical; conditions: IRAK4, 10 μM
Method: as §1

MKK1 = MKK1 (Homo sapiens, UniProt Q02750); test: Kinase selectivity screen; assay type: biochemical; conditions: MKK1, 10 μM
Sequence of MKK1 (Q02750 whole entry): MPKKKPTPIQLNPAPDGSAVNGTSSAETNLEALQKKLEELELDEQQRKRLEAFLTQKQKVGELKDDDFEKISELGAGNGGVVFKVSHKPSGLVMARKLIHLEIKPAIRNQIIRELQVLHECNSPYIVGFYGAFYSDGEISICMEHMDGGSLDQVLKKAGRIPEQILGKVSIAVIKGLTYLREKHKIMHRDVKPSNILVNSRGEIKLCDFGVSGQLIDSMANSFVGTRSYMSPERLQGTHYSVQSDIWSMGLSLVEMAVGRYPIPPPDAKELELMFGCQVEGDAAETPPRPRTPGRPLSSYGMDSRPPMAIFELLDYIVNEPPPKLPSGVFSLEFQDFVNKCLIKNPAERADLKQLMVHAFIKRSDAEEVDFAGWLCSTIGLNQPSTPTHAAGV
Method: as §1

EIF2AK3 = EIF2AK3 (Homo sapiens, UniProt Q9NZJ5); test: Kinase selectivity screen; assay type: biochemical; conditions: EIF2AK3, 10 μM
Method: as §1

MELK = MELK (Homo sapiens, UniProt Q14680); test: Kinase selectivity screen; assay type: biochemical
Method: as §1

MKK6 = MKK6 (Homo sapiens, UniProt P52564); test: Kinase selectivity screen; assay type: biochemical; conditions: MKK6, 10 μM
Method: as §1

MNK1 = MNK1 (Homo sapiens, UniProt Q9BUB5); test: Kinase selectivity screen; assay type: biochemical; conditions: MNK1, 10 μM
Method: as §1

TrkA = TrkA (Homo sapiens, UniProt P04629); test: Kinase selectivity screen; assay type: biochemical
Method: as §1

p38a MAPK = p38a MAPK (Homo sapiens, UniProt Q16539); test: Kinase selectivity screen; assay type: biochemical
Method: as §1

PRAK = PRAK (Homo sapiens, UniProt Q8IW41); test: Kinase selectivity screen; assay type: biochemical
Method: as §1

JAK2 = JAK2 (Homo sapiens, UniProt O60674); test: Kinase selectivity screen; assay type: biochemical; conditions: JAK2, 10 μM
Method: as §1

[1] = system: NCI-60 panel of cell lines; test: NCI-60 screen (whole panel); assay type: cell-based; conditions: Homo sapiens
From the text: The compound was then screened against a larger panel of cancer cell lines of diverse histopathologic origin, the NCI-60 screen. […] Mining of publicly available Cancer Genome Atlas (TCGA) expression data identified CHKA amplification and/or mRNA upregulation in 11% of breast, 5–10% of lung, 8% of ovarian, 7% of colorectal and 5% of prostate cancers. Furthermore, CHKA mRNA expression is higher in multiple tumor types compared to normal tissue (Supplementary Figure S1D). The gene was rarely mutated or deleted (0–2.5% mutation rate and < 1% deletion among all tested cancer types). The consistently high expression in a wide variety of tumor types highlights the relevance of CHKA in malignancy and role as a therapeutic target.

HCT116 cells = test: Metabolomics (LC-MS of soluble metabolites); assay type: cell-based, human; conditions: for change of intracellular PCho pool: 24 h
Method: Unlabeled metabolite analyses were conducted as previously reported. HCT116 cells cultured overnight in 6-well plates were treated with vehicle, 1 or 10 μM ICL-CCIC-0019 for 24 h prior to extraction. For flux experiments, HCT116 cells were plated onto 6-well plates and cultured overnight. The cells were then grown in medium containing vehicle or 1 μM ICL-CCIC-0019 for 24 h. The medium was then replaced with that containing ^13C metabolites (5 mM ^13C6-glucose or 0.2 mM ^13C2-acetate) and inhibitor for various indicated time points. Metabolites were extracted with a cold solution (−20°C) composed of methanol, acetonitrile, and water (5:3:2). The insoluble material was immediately pelleted in a cooled (0°C) centrifuge at 16,000 × g for 15 min and the supernatant was collected for subsequent LC-MS analysis. A ZIC-pHILIC column (4.6 mm × 150 mm, guard column 2.1 mm × 20 mm, Merck) was used for LC separation using formic acid, water, and acetonitrile as component of the mobile phase. Metabolites were detected using an Exactive mass spectrometer (ThermoFisher).

[2] = molecular target: recombinant human Δ49N CHKA2 (Homo sapiens, UniProt P35790); conditions: cited from earlier work

Work on `CN(C)c1cc[n+](CCCCCCCCCCCC[n+]2ccc(N(C)C)cc2)cc1` [ICL-CCIC-0019] yielded a remaining activity at 10 µM (Aurora A) of 98%, a remaining activity at 10 µM (SIK2) of 109% and a remaining activity at 10 µM (Aurora B) of 102%. The inhibition at 10 µM (MAPKAP-K3) was 33 ± 6%, the remaining activity at 10 µM (MAPKAP-K3) was 67% and the remaining activity at 10 µM (PAK6) was 107%. The remaining activity at 10 µM (CK1γ2) was 92%, the inhibition at 10 µM (HER4) was 21 ± 7% and the remaining activity at 10 µM (HER4) was 79%. It also gave a remaining activity at 10 µM (HIPK2) of 104%, a remaining activity at 10 µM (PKA) of 106% and a remaining activity at 10 µM (PKCγ) of 93%. For the same compound, the remaining activity at 10 µM (MEKK1) was 92%, the remaining activity at 10 µM (PAK5) was 90% and the remaining activity at 10 µM (CK1δ) was 100%. The remaining activity at 10 µM (IRAK4) was 83%, the remaining activity at 10 µM (MKK1) was 82% and the remaining activity at 10 µM (EIF2AK3) was 97%. It also gave a remaining activity at 10 µM (MELK) of 106%, a remaining activity at 10 µM (MKK6) of 102% and a remaining activity at 10 µM (MNK1) of 101%. The remaining activity at 10 µM (TrkA) was 84%, the remaining activity at 10 µM (p38a MAPK) was 108% and the remaining activity at 10 µM (PRAK) was 101%. For the same compound, the remaining activity at 10 µM (JAK2) was 90%, the GI50 ([1]; read-out: GI50 range across all cell lines) was 38.9 to 16200 nM and the GI50 ([1]; read-out: median GI50 across all cell lines) was 1120 nM. For the same compound, the “change of intracellular PCho pool” value (HCT116 cells; 1 μM) was −56%, the “change of intracellular PCho pool” value (HCT116 cells; 10 μM) was −61% and the “decrease in S-adenosylhomocysteine (SAH)” value (HCT116 cells; HCT116 cells) was 26%. The “increase in SAM” value (HCT116 cells; HCT116 cells) was 11% and the “mode of CHKA inhibition” value [2] was “competitive with choline, but not ATP”.
